{"source": "paper PMC9266350", "about": "“Searching for a Paradigm Shift in Auger-Electron Cancer Therapy with Tumor-Specific Radiopeptides Targeting the Mitochondria and/or the Cell Nucleus” (International Journal of Molecular Sciences, 2022)", "key": {"PC3 cells [1]": {"test_system": "PC3 cells", "test": "Confocal fluorescence microscopy colocalization with MitoTracker", "assay_type": "cell-based, human", "conditions": "1 µM, 30 min with MitoTracker Deep Red FM, fixed", "description": "To study the intracellular location of uptaken Re-AO-BBN, cells were washed with PBS, incubated with MitoTracker™ Deep Red FM (1:1000, Invitrogen, Bleiswijk, The Netherlands) and Re-AO-BBN (1 µM) in FluoroBrite™ DMEM with high D-glucose for 30 min, fixed with 4% paraformaldehyde (in PBS) at 4 °C for 20 min, washed with PBS, incubated with Hoechst (0.2 µg/mL) for 1 h, washed and left submerged in PBS. Cells were imaged on a Leica TCS SP8 confocal microscope, equipped with a HC Plan Apo 20 × /0.75 dry objective, 405, 488 and 638 nm laser lines, PMT (MitoTracker) and HyD (Hoechst, Re-AO-BBN) detectors. The pinhole was set to 1 airy unit and Nyquist sampling was met in xyz (132 × 132 × 685 nm). Mitochondria accumulation was assessed by the Pearson coefficient between Re-AO-BBN and MitoTracker fluorescence intensities, considering an appropriate threshold."}, "PC3 cells [2]": {"test_system": "PC3 cells", "test": "Clonogenic assay", "assay_type": "cell-based, human", "conditions": "highest concentration 10^−7 M (range 10^−10–10^−7 M), 24 h at 37 °C", "quoted_text": "PC3 cells were seeded at a density of 50000 cells per well in a 24 well-plate and allowed to attach overnight. […] Immediately, after incubation, cells were seeded out in appropriate dilution to form colonies, in 2 weeks, with at least 50 cells. Colonies were fixed with methanol: glacial acetic acid (3:1) and stained with Giemsa (4%).\nThe Plating Efficiency (PE), ratio of the number of colonies to the number of cells seeded, and the Survival Fraction (SF), number of colonies that arise after treatment of cells, expressed in terms of PE, were obtained following the methodology described in [66], where:(1) PE=number of colonies formed /number of cells seeded×100% (2) SF=number of colonies formed after treatment/number of cells seeded×PE"}, "PC3 cells [3]": {"test_system": "PC3 cells", "test": "γ-H2AX assay and foci analysis", "assay_type": "cell-based, human", "conditions": "1.85 MBq, 24 h at 37 °C", "description": "PC3 cells were seeded at a density of 10000 cells per well in an eight-well chamber slide and allowed to attach overnight. […] PC3 cells were washed three times with PBS, and fixed with 4% formaldehyde in PBS for 15 min. After washing with PBS, cells were permeabilized with Triton X-100 (0.5%) at room temperature for 5 min followed by two washing steps with 1% BSA in PBS. Then, cells were incubated with an anti-γ-H2AX primary antibody (mouse anti-γ-H2AX (ser139), Stressgen) at 2 μg/mL for 1 h. After being washed twice with 1% BSA in PBS, cells were incubated with a Texas Red-X-conjugated anti-mouse secondary antibody at […] for 1 h, followed by three washing steps with PBS. Cells were finally mounted in anti-fade mounting media with DAPI (Vectashield H-1200, Vector Laboratories).\nCells were analyzed under 64x magnification. Several high-quality 2D images were randomly collected in each slide and analyzed using the pipeline Speckle Count from the freeware CellProfiler. At least 200 nuclei were analyzed per experiment per dose. Statistical analysis was performed with Origin 7.5 software."}, "human GRPR": {"biological_target": "T1, human GRPR (Homo sapiens, UniProt P30550)", "T1 construct": "endogenous in cells; host or cells: PC3 human prostate carcinoma cells (intact, attached)", "T1 sequence (P30550 whole entry)": "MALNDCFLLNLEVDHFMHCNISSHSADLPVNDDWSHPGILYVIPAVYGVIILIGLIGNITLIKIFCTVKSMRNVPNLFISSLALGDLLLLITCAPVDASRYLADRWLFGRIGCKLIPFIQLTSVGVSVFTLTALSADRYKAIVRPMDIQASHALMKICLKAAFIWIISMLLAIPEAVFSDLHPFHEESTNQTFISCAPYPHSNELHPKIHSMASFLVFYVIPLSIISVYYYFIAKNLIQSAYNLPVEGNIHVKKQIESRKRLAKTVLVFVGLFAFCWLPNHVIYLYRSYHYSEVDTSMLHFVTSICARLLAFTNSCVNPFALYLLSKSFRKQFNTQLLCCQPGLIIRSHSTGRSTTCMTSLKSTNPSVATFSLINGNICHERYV", "test": "Competitive radioligand binding assay against [125I-Tyr4]-BBN", "conditions": "PC3 cells, 90 min at 4 °C, one-site model, mean ± SEM of three independent experiments; read-out: IC50, displacement of [125I-Tyr4]-BBN from GRPR", "description": "The in vitro cell-binding assays were performed with the prostate carcinoma cell line PC3. Briefly, cells were seeded in 24-well plates (150,000 cells per well) and allowed to attach overnight. […] The competition was interrupted by discarding supernatants and washing the cells twice with ice-cold PBS with 0.2% BSA. Cells were then lysed with 1 M NaOH treatment (2 × 0.4 mL, 10 min at 37 °C). Lysates were collected and counted for their radioactivity content in an automated γ–counter (HIDEX AMG, Hidex, Turku, Finland)."}, "PC3 cells [4]": {"test_system": "PC3 cells", "test": "Mitochondrial ToxGlo assay (cell membrane integrity and cellular ATP levels)", "conditions": "2 h at 37 °C, HBSS with galactose and 1% BSA, CCCP 10 μM", "description": "PC3 cells were seeded at a density of 10,000 cells per well in a 96 well-plate and allowed to attach overnight. […] Cells incubated only with this medium were used as a basal control and cells incubated with CCCP (10 μM) as a positive control for mitochondrial inhibition. After the 2 h, the Mitochondrial Toxglo assay was performed according to the manufacturer’s instructions (Promega). Assays were performed in triplicate."}}, "note": "Where a SMILES comes first, the peptide text is derived from it. Where no end group is shown, it is not given here. The star is where a group is joined. X1 = Cc1nn(CCN(CCN)CCCC(=O)NCCC[n+]2c3cc(N(C)C)ccc3cc3ccc(N(C)C)cc32)c(C)c1CC(=O)*; pyrazolyl‑diamine chelator carrying TPP = not defined here"}
{"compound": "CSCC[C@H](NC(=O)[C@H](CC(C)C)NC(=O)[C@H](Cc1c[nH]cn1)NC(=O)CNC(=O)[C@@H](NC(=O)[C@H](C)NC(=O)[C@H](Cc1c[nH]c2ccccc12)NC(=O)[C@H](CCC(N)=O)NC(=O)CNC(=O)CNC(=O)CNC(=O)Cc1c(C)nn(CCN(CCN)CCCC(=O)NCCC[n+]2c3cc(N(C)C)ccc3cc3ccc(N(C)C)cc32)c1C)C(C)C)C(N)=O", "note": "[Re-AO-BBN] (X1-GGGQWAVGHLM-NH2; C-terminus assumed)", "values": [{"measurement": "Pearson's Correlation Coefficient (PCC) of colocalization with Mitotracker dye", "setting": "PC3 cells [1]", "value": 0.31}, {"measurement": "effect on survival of PC3 cells compared with the control", "setting": "PC3 cells [2]", "value": "no effect"}]}
{"compound": "[O]=[99Tc](=[O])(=[O])[O-]", "note": "[^99mTcO4^−]", "values": [{"measurement": "foci number / DNA damage relative to the control (in words)", "setting": "PC3 cells [3]", "value": "did not cause any increase"}]}
{"compound": "Re-TPP-BBN: Re(I) congener of 99mTc-TPP-BBN, surrogate of the 99mTc complex ({pyrazolyl‑diamine chelator carrying TPP}-GGGQWAVGHLM; ends and bridges not checked; also: Re(I) complex of the chelator)", "values": [{"measurement": "IC50", "setting": "human GRPR", "value": "0.38 ± 0.14", "unit": "nM"}]}
{"compound": "cyanide-m-chlorophenylhydrazone [CCCP]", "values": [{"measurement": "cell membrane integrity / viability versus control", "setting": "PC3 cells [4]; radiocomplexes 0.74 and 1.85 MBq (loss at the highest activity)", "value": "did not compromise their viability"}, {"measurement": "ATP production / ATP levels versus control cells", "setting": "PC3 cells [4]; radiocomplexes 0.74 and 1.85 MBq", "value": "significantly reduced the ATP production"}]}
